Experiments:
[1] = NOVARTIS: Cytotoxicity against human hepatocellular carcinoma cell line (Huh7); assay type: toxicity, cell-based, Huh-7; details: Huh7 cells (hepatocellular carcinoma cell line)
Plasmodium falciparum [2] = experiment: NOVARTIS: Inhibition of Plasmodium falciparum 3D7 (drug-susceptible) proliferation in erythrocyte-based infection assay; assay type: functional, organism-based; details: Plasmodium falciparum, 3D7
Plasmodium falciparum [3] = experiment: NOVARTIS: Inhibition of Plasmodium falciparum W2 (drug-resistant) proliferation in erythrocyte-based infection assay; assay type: functional, organism-based; details: Plasmodium falciparum, W2; read-out: EC50

SMILES | CC50 [1] | EC50 (Plasmodium falciparum [2]) | EC50 (Plasmodium falciparum [3])
CCN1CCC(N2CCC(n3c(C4CCC4)nc4cc(F)ccc43)CC2)CC1 | 21.5 µM | 0.453 µM | 2.17 µM
Cc1cccc2cc(CNC34CC5CC(CC(C5)C3)C4)c(N3CCC(N4CCC(O)CC4)CC3)nc12 | 4.9 µM | 0.793 µM | 0.163 µM
O=C1C=C(Nc2ccc(O)cc2)c2ccccc2C1=O | 5.12 µM | 0.73 µM | 0.785 µM
CCN(CC)c1scc(-c2ccc(Br)cc2)[s+]1 | > 10 µM | 0.349 µM | 0.541 µM
COc1cc2cc(C(=O)Nc3ccccc3)c(N)nc2cc1OC | > 100 µM | 0.409 µM | 0.964 µM
COc1cc(OC)nc(CSc2ccc(NC(=O)CCl)cc2)n1 | > 10 µM | 0.518 µM | 0.479 µM
Cc1ccc2cc(C)c(Nc3ccc(Cl)cc3)nc2c1 | 61 µM | 0.426 µM | 0.57 µM
COc1ccc(CN(Cc2cc3cc(OC)c(OC)cc3[nH]c2=O)C(=S)NCCc2ccc(OC)c(OC)c2)cc1 | 35.7 µM | 5.58 µM | 1.04 µM
CC(=O)Nc1ccc(C(=O)N2CCC(Oc3cccc(CN(C)Cc4cccc5ccccc45)c3)CC2)cc1 | > 10 µM | > 1.25 µM | 0.945 µM
COc1ccc(C2=C(c3ccc(OC)cc3)C3C(=O)C2C2C(=O)N(c4cccc5ccccc45)C(=O)C32)cc1 (configuration not stated) | > 10 µM | > 1.09 µM | > 1.51 µM
COc1cc(-c2nc(-c3ccccc3)c(-c3ccc(O)cc3)[nH]2)cc(OC)c1O | > 10 µM | 0.879 µM | > 1.75 µM
COc1ccc(C=C2SC(=N)N(c3ccccc3OC)C2=O)cc1 | 62.9 µM | 0.163 µM | 0.0871 µM
CCC[n+]1ccc(/C=C/c2ccc(Br)cc2)cc1 | > 10 µM | 0.645 µM | 0.382 µM
Cn1cc(S(=O)(=O)c2cccc(Cl)c2)c(=O)c2cc(F)c(N3CCCCC3)cc21 | > 10 µM | 1.03 µM | > 0.372 µM
OCCNc1nc(Nc2ccc(Br)cc2)nc2ccccc12 | 12.1 µM | 0.49 µM | 0.566 µM
O=C(NC1CCN(CC(O)CN(Cc2ccccc2)S(=O)(=O)c2ccccc2)C1)c1ccco1 (configuration not stated) | > 10 µM | 1.16 µM | 0.319 µM
CCc1ccc(-n2c(C(CC)N(CCc3ccccc3)C(=O)c3cc(OC)cc(OC)c3)nc3ccccc3c2=O)cc1 (configuration not stated) | > 10 µM | > 0.547 µM | 0.291 µM
Nc1cc2c(cc1Br)CCCC2 | > 10 µM | > 1.03 µM | > 1.47 µM
COc1cc(C(=O)NC(C)C)ccc1OC1CCN(CC(c2ccccc2)c2ccccc2)CC1 | > 100 µM | 0.0743 µM | 0.0236 µM
CC1CCN(Cc2c(O)ccc3cc(-c4nc5ccccc5s4)c(=O)oc23)CC1 | > 100 µM | > 12.5 µM | 1.47 µM
CCOC(=O)c1cnc2c3c(ccc2c1O)CCCC3 | > 100 µM | 0.133 µM | 0.137 µM
COCCOC(=O)C1=C(C)NC2=C(C(=O)CC(c3ccc(OC)cc3)C2)C1c1ccc(Cl)cc1 (configuration not stated) | > 100 µM | 0.167 µM | 0.0332 µM
COc1ccc(/C=C2\N=C(c3ccc(Cl)cc3)N(c3ccccc3)C2=O)cc1OC | > 10 µM | > 1.25 µM | > 1.15 µM

SMILES | CC50 [1] | EC50 (Plasmodium falciparum [2]) | EC50 (Plasmodium falciparum [3])
COC(=O)c1c(-c2ccccc2Cl)csc1N | > 10 µM | > 1.25 µM | > 0.854 µM
CCN(CC)c1ccc(NC(=O)c2cccs2)cc1 | > 100 µM | 0.414 µM | 0.77 µM
c1cc2c(cc1Nc1c3c(nc4nncn14)CCC3)OCCO2 | > 100 µM | 2.95 µM | 1.48 µM
COc1ccccc1NC(=O)N(Cc1ccccc1)C(C)c1nc2ccccc2c(=O)n1-c1cc(C)ccc1C (configuration not stated) | > 6.06 µM | 0.451 µM | < 0.00688 µM
CCCCCCCCCCOC(=O)Cn1c(C)[n+](C)c2ccccc21 | 58.1 µM | > 12.5 µM | 0.644 µM
CN(CCCNc1ccnc2cc(Cl)ccc12)C(=O)c1ccc(C(C)(C)C)cc1 | 3.89 µM | 0.0812 µM | 0.0465 µM
CC1=C(C(=O)OC2CCCC2)C(c2ccc(Cl)cc2)C2=C(CC(c3ccc(Cl)cc3)CC2=O)N1 (configuration not stated) | > 100 µM | 2.59 µM | 0.487 µM
O=C(O)c1nsnc1C(O)C(O)C(=O)O (configuration not stated) | > 10 µM | > 1.41 µM | > 1.24 µM
O=C(COC(c1ccccc1)c1c(Cl)cncc1Cl)N1CCC(c2ccccn2)C1 (configuration not stated) | > 100 µM | > 12.5 µM | 6.96 µM
COc1cccc(C(=O)NC(c2ccccc2OC)c2cc(Cl)c3cccnc3c2O)c1 (configuration not stated) | > 100 µM | 1.2 µM | 1.15 µM
CCCCCCCCC(=O)Oc1ccccc1-c1nc2cc(C)ccn2c1NC(C)(C)CC(C)(C)C | > 10 µM | 0.713 µM | 0.074 µM
Cc1ccccc1C=NNc1nc2ccccc2[nH]1 | > 100 µM | 0.605 µM | 0.249 µM
c1ccc(Cc2nc(NCc3ccc4c(c3)OCO4)c3c4c(sc3n2)CCCC4)cc1 | > 10 µM | > 1.25 µM | > 1.13 µM
COc1ccc(OCCOCCN2CCN(C)CC2)cc1 | > 100 µM | > 8.08 µM | > 12.5 µM
CCCOC(=O)C1=C(C)NC2=C(C(=O)CC(c3ccc(OC)c(OC)c3)C2)C1c1ccccc1F (configuration not stated) | > 100 µM | 0.00671 µM | 0.00541 µM
Cc1ccc(-c2nn(CC(=O)Nc3cccc(C)c3)c(=O)c3ccccc23)cc1 | > 10 µM | > 1.09 µM | > 1.25 µM
CC(C)CC1=Nc2cc(C(=O)NCc3ccccc3)ccc2CN1Cc1cccnc1 | > 10 µM | > 1.25 µM | 0.0267 µM
N#CCSc1nc2ccccc2c2nc(CCc3c[nH]c4ccccc34)nn12 | 25.4 µM | 3.87 µM | 3.85 µM
COc1ccc(Nc2nc(N3CCCC3)c3ccccc3n2)cc1 | 10.2 µM | 0.285 µM | 0.334 µM
O=C(NNC(=O)c1csnn1)c1ccc(C(F)(F)F)cc1 | > 100 µM | 0.641 µM | 0.792 µM
CCOC(=O)c1c(S(=O)(=O)N2CCCC(C(=O)N3CCN(c4cccc(C)c4C)CC3)C2)c(C)n(C)c1C (configuration not stated) | > 100 µM | 0.923 µM | 2.12 µM
COc1ccc(C(C)=NNc2nnc(C)c(O)n2)cc1 | 7.68 µM | 0.188 µM | 0.258 µM
CCC(C)N1CCN(Cc2cccc(OC)c2OC)CC1 (configuration not stated) | > 10 µM | > 1.25 µM | > 0.169 µM

SMILES | CC50 [1] | EC50 (Plasmodium falciparum [2]) | EC50 (Plasmodium falciparum [3])
COc1cc(OC)cc(C(=O)N(C)CCCNc2ccnc3cc(Cl)ccc23)c1 | 4.7 µM | 0.143 µM | 0.116 µM
COc1ccc(NC(=O)CCCCCn2c(SCc3cc(=O)oc4cc(O)ccc34)nc3ccsc3c2=O)cc1 | > 100 µM | 5.82 µM | 2.87 µM
CC(=O)Nc1ccc2c(c1)C(=O)N(C(CC(C)(C)C)C(=O)NC1CCCCC1)[C@@H](CCC(=O)O)C(=O)N2 (some centres not stated) | 6.18 µM | 0.868 µM | 0.0516 µM
CC(=O)N(Cc1ccc2c(c1)OCO2)C1CC(=O)N(c2ccccc2)C1=O (configuration not stated) | > 10 µM | > 1.25 µM | > 0.381 µM
COc1cc(NC(C)CCCN(Cc2ccccc2OC)C(=O)c2ccc(Cl)c([N+](=O)[O-])c2)c2ncccc2c1 (configuration not stated) | > 3.91 µM | 1.2 µM | < 0.0182 µM
Brc1ccc2[nH]c3nc4ccccc4nc3c2c1 | > 100 µM | > 12.5 µM | > 5.92 µM
Cc1ccc(-c2nnc(N3CCOCC3)c3ccccc23)cc1S(=O)(=O)N1CCN(C)CC1 | > 10 µM | > 1.25 µM | > 1.22 µM
OC(Cn1cnc(-c2ccccc2)c1-c1ccccc1)Cn1c2ccc(Cl)cc2c2cc(Cl)ccc21 (configuration not stated) | 21.2 µM | 0.589 µM | 0.0997 µM
O=C(NCc1ccco1)C1CCN(S(=O)(=O)c2ccc(Cl)cc2)CC1 | > 100 µM | 0.514 µM | 0.355 µM
Cc1ccc(-c2ccc(C#N)c(OCC(=O)NCCc3ccccc3)n2)c(C)c1 | > 10 µM | > 1.25 µM | > 1.06 µM
CCc1ccc2c(c1)C(c1ccncc1)=NNC(c1ccncc1)=N2 | > 10 µM | 0.887 µM | > 1.3 µM
COc1cccc(-c2cncc(-c3cncc(OC)c3)n2)c1 | > 100 µM | 0.701 µM | 0.803 µM
CCN1CCN(c2cc(C)c(C#N)c3nc4ccccc4n23)CC1 | > 100 µM | 0.798 µM | 1.51 µM
COc1ccc(-c2ccc(C=C3C(=O)NC(=S)NC3=O)o2)cc1Cl | > 10 µM | > 1.04 µM | > 1.25 µM
Cc1cc(C)n(CC(O)Cn2c3ccc(I)cc3c3cc(I)ccc32)n1 (configuration not stated) | > 100 µM | 1.19 µM | 0.296 µM
COCCNC(=O)c1ccc2c(=O)n(Cc3ccc4c(c3)OCO4)c(=S)[nH]c2c1 | > 10 µM | > 0.533 µM | 0.943 µM
Cc1cc(C)n(CC(O)Cn2c3ccc(Br)cc3c3cc(Br)ccc32)n1 (configuration not stated) | 45.4 µM | 1.04 µM | 0.284 µM
Brc1ccc(Nc2nc(NCc3ccco3)c3ccccc3n2)cc1 | 7.15 µM | 0.196 µM | 0.193 µM
COc1ccc(C2CC(=O)C3=C(C2)NC(C)=C(C(=O)OC(C)C)C3c2cccc(Br)c2)cc1OC (configuration not stated) | 14.7 µM | 0.234 µM | 0.0416 µM
COc1ccc2c(c1)C(C)(CC#N)C(=O)N2C (configuration not stated) | > 100 µM | 5.64 µM | 1.06 µM
COC(=O)c1ccc(C2C3=C(O)CC(c4cccs4)CC3=Nc3ccccc3N2C(=O)c2ccccc2)cc1 (configuration not stated) | 25 µM | 0.436 µM | 0.625 µM
CC(C)(C)C1=CC(=C2C=C(C(C)(C)C)SC(C(C)(C)C)=C2)C=C(C(C)(C)C)S1 | > 10 µM | 0.805 µM | 0.506 µM
CCC(C)(C)C1CCc2c(sc(NC(=O)c3ccc(F)cc3)c2C(N)=O)C1 (configuration not stated) | > 10 µM | > 1.25 µM | 2.34 µM

Reference: ChEMBL document CHEMBL1156829 (Proc Natl Acad Sci U S A, 2008)
